# Test results as given in the supplement of paper PMC11061612.
# Columns and labels:
# [1] = test system: OSC-20 (Oral Cavity Carcinoma); test: combination Emax (second highest fraction inhibited in the dose matrix, 72 h); higher = more inhibition; extreme values may be limits of the assay
# Outline: (§1)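 Bliss excess equals the observed combination effect minus the expected value EA + EB − EA·EB, where EA and EB are the effects of each agent alone. Combination Emax is the second-highest inhibition within the matrix. Inhibition was scaled from CellTiter-Glo 2.0 luminescence, with 0 set by vehicle wells and 1 by blank wells, after 72 hours of two-drug dosing of cells plated in 1536-well plates.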
# NB69 (Neuroblastoma) = test: as above
# Outline: as §1
# [2] = test system: JVM-3 (B-Cell Non-Hodgkin's Lymphoma); test: as above
# Outline: as §1
# [3] = test system: JVM-3 (B-Cell Non-Hodgkin's Lymphoma); test: Bliss excess, mean over the matrix (fraction); higher = more synergy
# Outline: as §1
Compound,combination Emax [1],combination Emax (NB69 (Neuroblastoma)),combination Emax [2],Bliss excess [3]
"Cc1c2c(nn1C)CSCc1cc(n(C)n1)CSc1cc(c3ccccc3c1)OCCCc1c(C(=O)O)n(C)c3c-2c(Cl)ccc13 [AZD5991] + C=CCn1c(=O)c2cnc(Nc3ccc(N4CCN(C)CC4)cc3)nc2n1-c1cccc(C(C)(C)O)n1 [AZD1775] (first compound max 1 µM, partner max 1 µM)",0.346,0.944,0.92,-0.0884
"Cc1c2c(nn1C)CSCc1cc(n(C)n1)CSc1cc(c3ccccc3c1)OCCCc1c(C(=O)O)n(C)c3c-2c(Cl)ccc13 [AZD5991] + CC1(C)CCC(CN2CCN(c3ccc(C(=O)NS(=O)(=O)c4ccc(NCC5CCOCC5)c([N+](=O)[O-])c4)c(Oc4cnc5[nH]ccc5c4)c3)CC2)=C(c2ccc(Cl)cc2)C1 [Venetoclax] (first compound max 1 µM, 7x7, partner max 1 µM)",0.145,0.877,0.764,0.146
"Cc1c2c(nn1C)CSCc1cc(n(C)n1)CSc1cc(c3ccccc3c1)OCCCc1c(C(=O)O)n(C)c3c-2c(Cl)ccc13 [AZD5991] + CCN(CCO)CCCOc1ccc2c(Nc3cc(CC(=O)Nc4cccc(F)c4)[nH]n3)ncnc2c1 [AZD2811] (first compound max 1 µM, 7x7, partner max 1 µM)",0.438,0.878,0.486,0.0892
"Cc1c2c(nn1C)CSCc1cc(n(C)n1)CSc1cc(c3ccccc3c1)OCCCc1c(C(=O)O)n(C)c3c-2c(Cl)ccc13 [AZD5991] + CN(C)CCCOc1ccc(-c2ccc3ncc4c(c3c2)n(C2CCOCC2)c(=O)n4C)cn1 [AZD0156] (first compound max 1 µM, 7x7, partner max 1 µM)",0.256,0.666,0.509,-0.0613
"Cc1c2c(nn1C)CSCc1cc(n(C)n1)CSc1cc(c3ccccc3c1)OCCCc1c(C(=O)O)n(C)c3c-2c(Cl)ccc13 [AZD5991] + C[C@@H]1COCCN1C2=NC(=NC(=C2)C3(CC3)[S@](=N)(=O)C)C4=C5C=CNC5=NC=C4 [AZD6738] (first compound max 1 µM, 7x7, partner max 10 µM)",0.406,0.967,0.713,-0.0642
"Cc1c2c(nn1C)CSCc1cc(n(C)n1)CSc1cc(c3ccccc3c1)OCCCc1c(C(=O)O)n(C)c3c-2c(Cl)ccc13 [AZD5991] + C[C@@H](Nc1cc(F)cc(F)c1)c1cc(C(=O)N(C)C)cc2c(=O)cc(N3CCOCC3)oc12 [AZD8186] (first compound max 1 µM, 7x7, partner max 3 µM)",0.237,0.894,0.44,-0.0119
"Cc1c2c(nn1C)CSCc1cc(n(C)n1)CSc1cc(c3ccccc3c1)OCCCc1c(C(=O)O)n(C)c3c-2c(Cl)ccc13 [AZD5991] + Cc1cc2ncnn2cc1Nc1ncc2c(n1)n(C1CCOCC1)c(=O)n2C [AZD7648] (first compound max 1 µM, 7x7, partner max 10 µM)",0.257,0.779,0.498,-0.0539
"Cc1c2c(nn1C)CSCc1cc(n(C)n1)CSc1cc(c3ccccc3c1)OCCCc1c(C(=O)O)n(C)c3c-2c(Cl)ccc13 [AZD5991] + Cn1cnc2c(F)c(Nc3ccc(Br)cc3Cl)c(C(=O)NOCCO)cc21 [Selumetinib] (first compound max 1 µM, 7x7, partner max 3 µM)",0.276,0.982,0.472,-0.0296
"C[C@@H]1COCCN1c1cc(C2([S@](C)(=N)=O)CC2)nc(-c2ccnc3[nH]ccc23)n1 [AZD6738] + O=C(c1cc(Cc2n[nH]c(=O)c3ccccc23)ccc1F)N1CCN(C(=O)C2CC2)CC1 [Olaparib] (first compound max 10 µM, 7x7, partner max 10 µM)",0.387,0.94,0.704,-0.0937
"COc1cccc2c1C(=O)c1c(O)c3c(c(O)c1C2=O)C[C@@](O)(C(=O)CO)C[C@@H]3O[C@H]1C[C@H](N)[C@H](O)[C@H](C)O1 [Doxorubicin] + Cc1cc2ncnn2cc1Nc1ncc2c(n1)n(C1CCOCC1)c(=O)n2C [AZD7648] (first compound max 1 µM, 7x7, partner max 10 µM)",0.563,0.91,0.978,0.0661
"COc1cccc(OCCCN)c1-c1cc(Nc2cnc(C#N)cn2)n[nH]1 [Prexasertib] + C=CCn1c(=O)c2cnc(Nc3ccc(N4CCN(C)CC4)cc3)nc2n1-c1cccc(C(C)(C)O)n1 [AZD1775] (first compound max 1 µM, partner max 1 µM)",0.534,1,0.973,0.0369
"COc1cccc(OCCCN)c1-c1cc(Nc2cnc(C#N)cn2)n[nH]1 [Prexasertib] + CCc1c2c(nc3ccc(O)cc13)-c1cc3c(c(=O)n1C2)COC(=O)[C@]3(O)CC [SN-38] (first compound max 1 µM, 7x7, partner max 0.3 µM)",0.735,1,0.994,-0.0363
"COc1cccc(OCCCN)c1-c1cc(Nc2cnc(C#N)cn2)n[nH]1 [Prexasertib] + CN(C)CCCOc1ccc(-c2ccc3ncc4c(c3c2)n(C2CCOCC2)c(=O)n4C)cn1 [AZD0156] (first compound max 1 µM, 7x7, partner max 1 µM)",0.584,0.915,0.985,-0.0097
"COc1cccc(OCCCN)c1-c1cc(Nc2cnc(C#N)cn2)n[nH]1 [Prexasertib] + C[C@@H]1COCCN1C2=NC(=NC(=C2)C3(CC3)[S@](=N)(=O)C)C4=C5C=CNC5=NC=C4 [AZD6738] (first compound max 1 µM, 7x7, partner max 10 µM)",0.575,0.91,0.966,-0.0351
"COc1cccc(OCCCN)c1-c1cc(Nc2cnc(C#N)cn2)n[nH]1 [Prexasertib] + Cc1cc2ncnn2cc1Nc1ncc2c(n1)n(C1CCOCC1)c(=O)n2C [AZD7648] (first compound max 1 µM, 7x7, partner max 10 µM)",0.599,0.906,0.981,-0.027
"COc1cccc(OCCCN)c1-c1cc(Nc2cnc(C#N)cn2)n[nH]1 [Prexasertib] + O=C(c1cc(Cc2n[nH]c(=O)c3ccccc23)ccc1F)N1CCN(C(=O)C2CC2)CC1 [Olaparib] (first compound max 1 µM, 7x7, partner max 10 µM)",0.648,0.896,0.986,-0.0314
"CCc1c2c(nc3ccc(O)cc13)-c1cc3c(c(=O)n1C2)COC(=O)[C@]3(O)CC [SN-38] + CN(C)CCCOc1ccc(-c2ccc3ncc4c(c3c2)n(C2CCOCC2)c(=O)n4C)cn1 [AZD0156] (first compound max 0.3 µM, 7x7, partner max 1 µM)",0.716,0.995,0.982,-0.0309
"CCc1c2c(nc3ccc(O)cc13)-c1cc3c(c(=O)n1C2)COC(=O)[C@]3(O)CC [SN-38] + O=C(c1cc(Cc2n[nH]c(=O)c3ccccc23)ccc1F)N1CCN(C(=O)C2CC2)CC1 [Olaparib] (first compound max 0.3 µM, 7x7, partner max 10 µM)",0.746,0.967,0.998,0.0365
"CC(=O)Nc1cccc(-n2c(=O)n(C3CC3)c(=O)c3c(Nc4ccc(I)cc4F)n(C)c(=O)c(C)c32)c1 [Trametinib] + Cc1nc(-c2cn3c(n2)-c2ccc(-c4cnn(C(C)(C)C(N)=O)c4)cc2OCC3)n(C(C)C)n1 [Taselisib] (first compound max 1 µM, 7x7, partner max 10 µM)",0.669,1,0.734,-0.006
"CC1(C)CCC(CN2CCN(c3ccc(C(=O)NS(=O)(=O)c4ccc(NCC5CCOCC5)c([N+](=O)[O-])c4)c(Oc4cnc5[nH]ccc5c4)c3)CC2)=C(c2ccc(Cl)cc2)C1 [Venetoclax] + C1CN(CCC1(C(=O)N[C@@H](CCO)C2=CC=C(C=C2)Cl)N)C3=NC=NC4=C3C=CN4 [Capivasertib] (first compound max 1 µM, 7x7, partner max 3 µM)",0.265,0.426,0.636,0.0192
"CC1(C)CCC(CN2CCN(c3ccc(C(=O)NS(=O)(=O)c4ccc(NCC5CCOCC5)c([N+](=O)[O-])c4)c(Oc4cnc5[nH]ccc5c4)c3)CC2)=C(c2ccc(Cl)cc2)C1 [Venetoclax] + C=CCn1c(=O)c2cnc(Nc3ccc(N4CCN(C)CC4)cc3)nc2n1-c1cccc(C(C)(C)O)n1 [AZD1775] (first compound max 1 µM, partner max 1 µM)",0.253,0.849,0.953,-0.0521
"CC1(C)CCC(CN2CCN(c3ccc(C(=O)NS(=O)(=O)c4ccc(NCC5CCOCC5)c([N+](=O)[O-])c4)c(Oc4cnc5[nH]ccc5c4)c3)CC2)=C(c2ccc(Cl)cc2)C1 [Venetoclax] + CCN(CCO)CCCOc1ccc2c(Nc3cc(CC(=O)Nc4cccc(F)c4)[nH]n3)ncnc2c1 [AZD2811] (first compound max 1 µM, 7x7, partner max 1 µM)",0.336,0.777,0.653,0.162
"CC1(C)CCC(CN2CCN(c3ccc(C(=O)NS(=O)(=O)c4ccc(NCC5CCOCC5)c([N+](=O)[O-])c4)c(Oc4cnc5[nH]ccc5c4)c3)CC2)=C(c2ccc(Cl)cc2)C1 [Venetoclax] + CN(C)CCCOc1ccc(-c2ccc3ncc4c(c3c2)n(C2CCOCC2)c(=O)n4C)cn1 [AZD0156] (first compound max 1 µM, 7x7, partner max 1 µM)",0.16,0.329,0.673,0.0085
"CC1(C)CCC(CN2CCN(c3ccc(C(=O)NS(=O)(=O)c4ccc(NCC5CCOCC5)c([N+](=O)[O-])c4)c(Oc4cnc5[nH]ccc5c4)c3)CC2)=C(c2ccc(Cl)cc2)C1 [Venetoclax] + COc1cc(Nc2ncc3c(n2)-c2ccc(Cl)cc2C(c2c(F)cccc2OC)=NC3)ccc1C(=O)O [Alisertib] (first compound max 1 µM, 7x7, partner max 10 µM)",0.345,0.915,0.823,0.215
"CC1(C)CCC(CN2CCN(c3ccc(C(=O)NS(=O)(=O)c4ccc(NCC5CCOCC5)c([N+](=O)[O-])c4)c(Oc4cnc5[nH]ccc5c4)c3)CC2)=C(c2ccc(Cl)cc2)C1 [Venetoclax] + C[C@@H]1COCCN1C2=NC(=NC(=C2)C3(CC3)[S@](=N)(=O)C)C4=C5C=CNC5=NC=C4 [AZD6738] (first compound max 1 µM, 7x7, partner max 10 µM)",0.425,0.884,0.9,0.0106
